In this experiment the test system is H3K27 methylation in G401 cell. As to the kind of experiment: ELISA (H3K27 methylation) assay. The format is cell-based. Particulars: Homo sapiens, G-401; ELISA Qualified assay (H3K27 methylation); read-out: (c) IC50 (μM), ELISA Qualified. The text has this:
ELISA (H3K27 Methylation) Assay
(In an ELISA, binding on a coated surface is turned into a signal by an enzyme label.)

For orientation: IC50 means the concentration that gives 50% inhibition. As to `Fc1ccc2c(c1CNc1ncc(-c3ccc(C4CC4)nc3)c3nncn13)CCO2` [Example 119, 8-(6-cyclopropylpyridin-3-yl)-N-((5-fluoro-2,3-dihydrobenzofuran-4-yl)methyl)-[1,2,4]triazolo[4,3-c]pyrimidin-5-amine], the IC50 was 0.0108 µM. For `Fc1ccc2c(c1CNc1ncc(-c3ccnc(N4CCOCC4)c3)c3nncn13)CCO2` [Example 120, N-((5-fluoro-2,3-dihydrobenzofuran-4-yl)methyl)-8-(2-morpholinopyridin-4-yl)-[1,2,4]triazolo[4,3-c]pyrimidin-5-amine] the value was 0.0721 µM; for `N#Cc1ccccc1-c1cnc(NCc2c(F)ccc3c2CCO3)n2cnnc12` [Example 121, 2-(5-(((5-fluoro-2,3-dihydrobenzofuran-4-yl)methyl)amino)-[1,2,4]triazolo[4,3-c]pyrimidin-8-yl)-benzonitrile], 0.0142 µM. With `NC(=O)c1ccccc1-c1cnc(NCc2c(F)ccc3c2CCO3)n2cnnc12` [Example 122, 2-(5-(((5-fluoro-2,3-dihydrobenzofuran-4-yl)methyl)amino)-[1,2,4]triazolo[4,3-c]pyrimidin-8-yl)benzamide], the IC50 was determined as 0.135 µM.

Consider `Cc1ncccc1-c1cnc(NCc2cccc3c2CCO3)n2cnnc12` [Example 123, N-((2,3-dihydrobenzofuran-4-yl)methyl)-8-(2-methylpyridin-3-yl)-[1,2,4]triazolo[4,3-c]pyrimidin-5-amine], for which the IC50 amounted to 0.0197 µM. Then `Fc1ccc2c(c1CNc1ncc(-c3cnccc3Cl)c3nncn13)CCO2` [Example 124], with 0.006 µM; and `OC1CN(c2ccc(-c3cnc(NCc4cccc5c4CCO5)n4cnnc34)cn2)C1` [Example 126, 1-(5-(5-(((2,3-dihydrobenzofuran-4-yl)methyl)amino)-[1,2,4]triazolo[4,3-c]pyrimidin-8-yl)pyridin-2-yl)azetidin-3-ol], with 0.656 µM. Then `Cc1cc(S(C)(=O)=O)ncc1-c1cnc(NCc2c(F)ccc3c2CCO3)n2cnnc12` [Example 127, N-((5-fluoro-2,3-dihydrobenzofuran-4-yl)methyl)-8-(4-methyl-6-(methylsulfonyl)pyridin-3-yl)-[1,2,4]triazolo[4,3-c]pyrimidin-5-amine], with 0.028 µM; and `Cc1cc(S(C)(=O)=O)ccc1-c1cnc(NCc2c(F)ccc3c2CCO3)n2cnnc12` [Example 128, N-((5-fluoro-2,3-dihydrobenzofuran-4-yl)methyl)-8-(2-methyl-4-(methylsulfonyl)phenyl)-[1,2,4]triazolo[4,3-c]pyrimidin-5-amine], with 0.0037 µM; and `O=C(c1ccc(-c2cnc(NCc3c(F)ccc4c3CCO4)n3cnnc23)cn1)N1CCCC1` [Example 129, (5-(5-(((5-fluoro-2,3-dihydrobenzofuran-4-yl)methyl)amino)-[1,2,4]triazolo[4,3-c]pyrimidin-8-yl)pyridin-2-yl)(pyrrolidin-l-yl)methanone], with 0.0019 µM. Then `Cc1cc(C(=O)N2CCCC2)ncc1-c1cnc(NCc2c(F)ccc3c2CCO3)n2cnnc12` [Example 130, (5-(5-(((5-fluoro-2,3-dihydrobenzofuran-4-yl)methyl)amino)-[1,2,4]triazolo[4,3-c]pyrimidin-8-yl)-4-methylpyridin-2-yl)(pyrrolidin-l-yl)methanone], with 0.0013 µM; and `Cc1cc(C(=O)N(C)C)ncc1-c1cnc(NCc2c(F)ccc3c2CCO3)n2cnnc12` [Example 131, 5-(5-(((5-fluoro-2,3-dihydrobenzofuran-4-yl)methyl)amino)-[1,2,4]triazolo[4,3-c]pyrimidin-8-yl)-N,N,4-trimethylpicolinamide], with 0.0033 µM. Consider `Cc1nn(C)c(C)c1-c1cnc(NCc2c(F)ccc3c2CCO3)n2cnnc12` [Example 132, N-((5-fluoro-2,3-dihydrobenzofuran-4-yl)methyl)-8-(1,3,5-trimethyl-1H-pyrazol-4-yl)-[1,2,4]triazolo[4,3-c]pyrimidin-5-amine], for which the IC50 is 0.0077 µM. On to `O=C1CN(Cc2ccc(-c3cnc(NCc4cccc5c4CCO5)n4cnnc34)cn2)CCN1` [Example 133, 4-((5-(5-(((2,3-dihydrobenzofuran-4-yl)methyl)amino)-[1,2,4]triazolo[4,3-c]pyrimidin-8-yl)pyridin-2-yl)methyl)piperazin-2-one], for which the IC50 came out at 0.142 µM. As for `O=CN1CCN(c2ccc(-c3cnc(NCc4cccc5c4CCO5)n4cnnc34)cn2)CC1` [Example 134, 4-(5-(5-(((2,3-dihydrobenzofuran-4-yl)methyl)amino)-[1,2,4]triazolo[4,3-c]pyrimidin-8-yl)pyridin-2-yl)piperazine-1-carbaldehyde], the IC50 came to 0.165 µM. With `CN(C)C(=O)CCc1ccc(-c2cnc(NCc3cccc4c3CCO4)n3cnnc23)cn1` [Example 135, 3-(5-(5-(((2,3-dihydrobenzofuran-4-yl)methyl)amino)-[1,2,4]triazolo[4,3-c]pyrimidin-8-yl)pyridin-2-yl)-N,N-dimethylpropanamide], the IC50 was found to be 0.321 µM. Then `Fc1ccc2c(c1CNc1ncc(-c3cnccc3C(F)(F)F)c3nncn13)CCO2` [Example 136, N-((5-fluoro-2,3-dihydrobenzofuran-4-yl)methyl)-8-(4-(trifluoromethyl)pyridin-3-yl)-[1,2,4]triazolo[4,3-c]pyrimidin-5-amine], with 0.0804 µM; and `COCc1cc(-c2cnc(NCc3cccc4c3CCO4)n3cnnc23)cnc1C` [Example 137, N-((2,3-dihydrobenzofuran-4-yl)methyl)-8-(5-(methoxymethyl)-6-methylpyridin-3-yl)-[1,2,4]triazolo[4,3-c]pyrimidin-5-amine], with 0.226 µM.

Take `COc1cc(Cl)c(-c2cnc(NCc3c(F)ccc4c3CCO4)n3cnnc23)cn1` [Example 138, 8-(4-chloro-6-methoxypyridin-3-yl)-N-((5-fluoro-2,3-dihydrobenzofuran-4-yl)methyl)-[1,2,4]triazolo[4,3-c]pyrimidin-5-amine]: the IC50 worked out at 0.0072 µM.

As to `Cc1nc(S(C)(=O)=O)ccc1-c1cnc(NCc2c(F)ccc3c2CCO3)n2cnnc12` [Example 139, N-((5-fluoro-2,3-dihydrobenzofuran-4-yl)methyl)-8-(2-methyl-6-(methylsulfonyl)pyridin-3-yl)-[1,2,4]triazolo[4,3-c]pyrimidin-5-amine], the IC50 turned out to be 0.0016 µM.

Consider `CN(C)C(=O)c1ccc(-c2cnc(NCc3c(F)ccc4c3CCO4)n3cnnc23)cn1` [Example 140, 5-(5-(((5-fluoro-2,3-dihydrobenzofuran-4-yl)methyl)amino)-[1,2,4]triazolo[4,3-c]pyrimidin-8-yl)-N,N-dimethylpicolinamide], for which the IC50 was 0.0263 µM. For `COc1ncccc1-c1cnc(NCc2c(F)ccc3c2CCO3)n2cnnc12` [Example 141, N-((5-fluoro-2,3-dihydrobenzofuran-4-yl)methyl)-8-(2-methoxypyridin-3-yl)-[1,2,4]triazolo[4,3-c]pyrimidin-5-amine] the value was 0.0351 µM; for `COc1ccc(-c2cnc(NCc3c(F)ccc4c3CCO4)n3cnnc23)cn1` [Example 142, N-((5-fluoro-2,3-dihydrobenzofuran-4-yl)methyl)-8-(6-methoxypyridin-3-yl)-[1,2,4]triazolo[4,3-c]pyrimidin-5-amine], 0.0043 µM.

Source of the values: patent US11207325B2, “Triazolopyrimidine compounds and uses thereof” (Novartis AG, priority 2014, dated 2021).
